{
  "source": "patent US20150284900A1",
  "about": "“Novel Activator for Hydrogen Peroxide and Its Application” (priority 2014, published 2015)",
  "origin": "cited, not measured here",
  "conditions": "in water; room temperature (20° C.)",
  "data": [
    {"smiles": "OO", "note": "[Activator H2O2, Hydrogen peroxide]", "values": [
      {"measurement": "ionization constant", "value": "1.78×10^−12"}
    ]}
  ]
}
